Assay results taken from ChEMBL document CHEMBL1201862, “PubChem BioAssay data set” (2004).
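Growth conditions: 96-well plates. Treatment: test compound, 48 hours, 5 concentrations. Analysis: linear interpolation between bracketing concentrations; unreached endpoints set to highest concentration. At the GI50, growth is halved.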 Active and inactive are the calls of the source. Cut-off read from the data, not from the text of the source: active = GI50 up to about 1.1 µM and inactive = higher.

What was measured:
Experiment in all cases: NCI anticancer screen, dose series, 48 h
COLO 205 = tested on: COLO 205
DMS-114 = tested on: DMS-114
DU-145 = tested on: DU-145
HCC 2998 = tested on: HCC 2998
K562 = tested on: K562
LOX IMVI = tested on: LOX IMVI
MCF7 = tested on: MCF7
MOLT-4 = tested on: MOLT-4
NCI-H226 = tested on: NCI-H226
NCI-H522 = tested on: NCI-H522
RPMI-8226 = tested on: RPMI-8226
SK-MEL-28 = tested on: SK-MEL-28
SK-MEL-2 = tested on: SK-MEL-2
SK-MEL-5 = tested on: SK-MEL-5
SK-OV-3 = tested on: SK-OV-3
SNB-75 = tested on: SNB-75
SW-620 = tested on: SW-620
TK-10 = tested on: TK-10
UACC-257 = tested on: UACC-257
UACC-62 = tested on: UACC-62

SMILES | GI50 (COLO 205) | GI50 (DMS-114) | GI50 (DU-145) | GI50 (HCC 2998) | GI50 (K562) | GI50 (LOX IMVI) | GI50 (MCF7) | GI50 (MOLT-4) | GI50 (NCI-H226) | GI50 (NCI-H522) | GI50 (RPMI-8226) | GI50 (SK-MEL-28) | GI50 (SK-MEL-2) | GI50 (SK-MEL-5) | GI50 (SK-OV-3) | GI50 (SNB-75) | GI50 (SW-620) | GI50 (TK-10) | GI50 (UACC-257) | GI50 (UACC-62)
COc1cccc2ccc3c(c12)C(=O)OC31CCc2c(C)cccc21 (centres undefined) | 22.6 µM (inactive) | 8.67 µM (inactive) | 34.2 µM (inactive) | 26.7 µM (inactive) | 7.91 µM (inactive) | 14.2 µM (inactive) | 0.018 µM (active) | 13.2 µM (inactive) | 12 µM (inactive) | 21.4 µM (inactive) | 6.87 µM (inactive) | 22.4 µM (inactive) | 32.1 µM (inactive) | 10.2 µM (inactive) | > 46.5 µM (inactive) | 13.4 µM (inactive) | 12.1 µM (inactive) | 23.1 µM (inactive) | 23.4 µM (inactive) | 11.6 µM (inactive)
CSc1ncnc2c1CCN2 | 8.85 µM (inactive) | > 100 µM (inactive) | > 10 µM (inactive) | > 10 µM (inactive) | 4.93 µM (inactive) | 6.34 µM (inactive) | 6.34 µM (inactive) | > 10 µM (inactive) | > 10 µM (inactive) | 2.73 µM (inactive) | > 10 µM (inactive) | > 10 µM (inactive) | 5.86 µM (inactive) | 2.92 µM (inactive) | > 10 µM (inactive) | > 10 µM (inactive) | 7.96 µM (inactive) | > 10 µM (inactive) | 3.83 µM (inactive) | 3.81 µM (inactive)
O=C(Cc1ccccc1F)NC1=C(Cl)C(=O)c2ccccc2C1=O | 3.23 µM (inactive) | 0.21 µM (active) | 10.1 µM (inactive) | 3.48 µM (inactive) | 0.611 µM (active) | 1.75 µM (inactive) | 3.74 µM (inactive) | 1.06 µM (active) | 1.74 µM (inactive) | 0.29 µM (active) | 0.436 µM (active) | 0.822 µM (active) | 0.652 µM (active) | 1.06 µM (active) | 3.04 µM (inactive) | 0.655 µM (active) | 0.721 µM (active) | 2.4 µM (inactive) | – | 0.481 µM (active)
CC1=C2C(=CO[C@H](C)[C@H]2C)C(O)=C(C(=O)O)C1=O [CITRININ] | 33.9 µM (inactive) | 11.5 µM (inactive) | 24.2 µM (inactive) | 19.1 µM (inactive) | 15.3 µM (inactive) | 16.3 µM (inactive) | 15.7 µM (inactive) | 13.1 µM (inactive) | 23.3 µM (inactive) | 12.4 µM (inactive) | 15.8 µM (inactive) | 31.8 µM (inactive) | 16.3 µM (inactive) | 12.8 µM (inactive) | 71.8 µM (inactive) | 32.6 µM (inactive) | 20.6 µM (inactive) | 24.5 µM (inactive) | 29.7 µM (inactive) | 20.3 µM (inactive)
COc1cc2ccc(=O)oc2cc1O [SCOPOLETIN] | 142 µM (inactive) | 28.5 µM (inactive) | > 100 µM (inactive) | 98.4 µM (inactive) | 152 µM (inactive) | 61.9 µM (inactive) | 118 µM (inactive) | 28.8 µM (inactive) | 86.3 µM (inactive) | 67.8 µM (inactive) | 46.1 µM (inactive) | 73.3 µM (inactive) | 109 µM (inactive) | 78 µM (inactive) | 94.2 µM (inactive) | 50.8 µM (inactive) | 67.3 µM (inactive) | > 100 µM (inactive) | 71.9 µM (inactive) | 71.3 µM (inactive)
